Laboratory results reported in patent US20240158348A1, “HERBICIDAL CYCLIC AMIDES N-SUBSTITUTED WITH A HALOALKYLSULFONYLANILIDE GROUP” (FMC Corporation, priority 2021, published 2024).

Assays:
Format in all cases: in vivo
[1] = tested on: ducksalad (Heteranthera limosa); assay: Test B flooded paddy test, ducksalad; conditions: 250 g ai/ha, Flood, scale of 0 to 100 where 0 is no effect and 100 is complete control, visually evaluated after 10 to 14 days, read-out: Plant response rating, Ducksalad
Description: Plant species in the flooded paddy test selected from barnyardgrass (Echinochloa crusgalli), ducksalad (Heteranthera limosa), rice (Oryza sativa), and sedge, umbrella (small-flower umbrella sedge, Cyperus difformis) were grown to the 2-leaf stage for testing. At time of treatment, test pots were flooded to 3 cm above the soil surface, treated by application of test compounds directly to the paddy water, and then maintained at that water depth for the duration of the test. Treated plants and controls were maintained in a greenhouse for 10 to 14 days, after which time all species were compared to controls and visually evaluated. Plant response ratings, summarized in Table B, are based on a scale of 0 to 100 where 0 is no effect and 100 is complete control. A dash (-) response means no test result.

[2] = tested on: foxtail, giant (giant foxtail, Setaria faberi); assay: Test A preemergence, giant foxtail; conditions: pre-emergence, 240 h, 0 to 100 scale, 10 days, read-out: Plant response rating, Foxtail, Giant; for pest or weed control at 31 g/ha: 31 g ai/ha; for pest or weed control at 125 g/ha: 125 g ai/ha
Description: (§1) Seeds of plant species selected from barnyardgrass (Echinochloa crus-galli), blackgrass (Alopecurus myosuroides), corn (Zea mays), foxtail, giant (giant foxtail, Setaria faberi), goosegrass (Eleusine indica), kochia (Bassia scoparia), oat, wild (wild oat, Avena fatua), pigweed, palmer (palmer amaranth, Amaranthus palmeri), pigweed, redroot (redroot pigweed, Amaranthus retroflexus), ragweed (common ragweed, Ambrosia artemisiifolia), ryegrass, Italian (Italian ryegrass, Lolium multiflorum), soybean (Glycine max), and wheat (Triticum aestivum) were planted into a blend of loam soil and sand and treated preemergence with a directed soil spray using test chemicals formulated in a non-phytotoxic solvent mixture which included a surfactant.
(§2) At the same time, plants selected from these crop and weed species and also galium (catchweed bedstraw, Galium aparine) and horseweed (Erigeron canadensis) were planted in pots containing the same blend of loam soil and sand and treated with postemergence applications of test chemicals formulated in the same manner. Plants ranged in height from 2 to 10 cm and were in the one- to two-leaf stage for the postemergence treatment. Treated plants and untreated controls were maintained in a greenhouse for 10 days, after which time all treated plants were compared to untreated controls and visually evaluated for injury. Plant response ratings, summarized in Table A, are based on a 0 to 100 scale where 0 is no effect and 100 is complete control. A dash (-) response means no test result.

[3] = tested on: ryegrass, Italian (Italian ryegrass, Lolium multiflorum); assay: Test A preemergence, Italian ryegrass; conditions: pre-emergence, 240 h, 0 to 100 scale, 10 days, read-out: Plant response rating, Ryegrass, Italian; for pest or weed control at 31 g/ha: 31 g ai/ha; for pest or weed control at 125 g/ha: 125 g ai/ha
Description: as §1, §2

[4] = tested on: blackgrass (Alopecurus myosuroides); assay: Test A postemergence, blackgrass; conditions: 0 to 100 scale, 10 days
Description: as §1, §2

[5] = tested on: wheat (Triticum aestivum); assay: Test A postemergence, wheat; conditions: post-emergence, 240 h, 0 to 100 scale, 10 days, read-out: Plant response rating, Wheat; for plant injury at 31 g/ha: 31 g ai/ha; for plant injury at 125 g/ha: 125 g ai/ha
Description: as §1, §2

[6] = tested on: blackgrass (Alopecurus myosuroides); assay: Test A preemergence, blackgrass; conditions: 0 to 100 scale, 10 days
Description: as §1, §2

[7] = tested on: pigweed, palmer (palmer amaranth, Amaranthus palmeri); assay: Test C preemergence, palmer amaranth; conditions: 0 is no effect, 100 is complete control
Outline: (§3)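 Greenhouse pot test. Compounds in a non-phytotoxic solvent with surfactant were applied to a loam–sand soil mix either preemergence as a directed spray or postemergence to plants at the one- to two-leaf stage; 0–100 visual ratings followed after 10 or 12 days.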

[8] = tested on: ryegrass, Italian (Italian ryegrass, Lolium multiflorum); assay: Test C postemergence, Italian ryegrass; conditions: visual injury, 0 to 100 scale (0 no effect, 100 complete control)
Outline: as §3

[9] = tested on: ragweed (common ragweed, Ambrosia artemisiifolia); assay: Test C postemergence, ragweed; conditions: visual injury, 0 to 100 scale (0 no effect, 100 complete control)
Outline: as §3

SMILES	pest or weed control at 250 g/ha [1] [%]	pest or weed control at 31 g/ha [2] [%]	pest or weed control at 125 g/ha [2] [%]	pest or weed control at 31 g/ha [3] [%]	pest or weed control at 125 g/ha [3] [%]	Plant response rating, Blackgrass ([4]; 31 g ai/ha)	Plant response rating, Blackgrass ([4]; 125 g ai/ha)	plant injury at 31 g/ha [5] [%]	plant injury at 125 g/ha [5] [%]	Plant response rating, Blackgrass ([6]; 31 g ai/ha)	Plant response rating, Blackgrass ([6]; 125 g ai/ha)	Plant response rating (0 to 100 scale), Pigweed, Palmer ([7]; 31 g ai/ha Preemergence)	Plant response rating (0 to 100 scale), Pigweed, Palmer ([7]; 125 g ai/ha Preemergence)	Ryegrass, Italian plant response rating ([8]; 31 g ai/ha Postemergence)	Ryegrass, Italian plant response rating ([8]; 125 g ai/ha Postemergence)	Ragweed plant response rating ([9]; 31 g ai/ha Postemergence)	Ragweed plant response rating ([9]; 125 g ai/ha Postemergence)
C#CCOC1CCN(c2cc(NS(=O)(=O)C(F)(F)F)c(C)cc2C)C1=O (centres unmarked) [Compound 1, N-[2,4-dimethyl-5-[2-oxo-3-(2-propyn-1-yloxy)-1-pyrrolidinyl]phenyl]-1,1,1-trifluoromethanesulfonamide]	80	90	100	100	100	10	50	60	70								
C=CCOC1CCN(c2cc(NS(=O)(=O)C(F)(F)F)c(C)cc2C)C1=O (centres unmarked) [Compound 2, N-[2,4-dimethyl-5-[2-oxo-3-(2-propen-1-yloxy)-1-pyrrolidinyl]phenyl]-1,1,1-trifluoromethanesulfonamide]	75	100	100	90	100	20	40	70	70								
Cc1cc(C)c(N2CCC(OC3CC3)C2=O)cc1NS(=O)(=O)C(F)(F)F (centres unmarked) [Compound 3, N-[5-[3-(cyclopropyloxy)-2-oxo-1-pyrrolidinyl]-2,4-dimethylphenyl]-1,1,1-trifluoromethanesulfonamide]	98	100	100	90	100	40	70	80	80	80	100						
Cc1cc(C)c(N2CCC(OC3CCC3)C2=O)cc1NS(=O)(=O)C(F)(F)F (centres unmarked) [Compound 4, N-[5-[3-(cyclobutyloxy)-2-oxo-1-pyrrolidinyl]-2,4-dimethylphenyl]-1,1,1-trifluoromethanesulfonamide]	100	100	100	100	100			50	50	20	90						
Cc1cc(C)c(N(COC(=O)C(C)(C)C)S(=O)(=O)C(F)(F)F)cc1N1CCC(OC2CCCC2)C1=O (centres unmarked) [Compound 5, [[5-[3-(cyclopentyloxy)-2-oxo-1-pyrrolidinyl]-2,4-dimethylphenyl][(trifluoromethyl)sulfonyl]amino]methyl 2,2-dimethylpropanoate]	95	0	50	20	90	0	0	0	50	0	40						
Cc1cc(C)c(N2CCC(OC3CCCC3)C2=O)cc1NS(=O)(=O)C(F)(F)F (centres unmarked) [Compound 6, N-[5-[3-(cyclopentyloxy)-2-oxo-1-pyrrolidinyl]-2,4-dimethylphenyl]-1,1,1-trifluoromethanesulfonamide]	85	100	100	80	90	0	40	60	60	50	90						
Cc1cc(C)c(N(COC(=O)C(C)(C)C)S(=O)(=O)C(F)(F)F)cc1N1CCC(OC2CC2)C1=O (centres unmarked) [Compound 7, [[5-[3-(cyclopropyloxy)-2-oxo-1-pyrrolidinyl]-2,4-dimethylphenyl][(trifluoromethyl)sulfonyl]amino]methyl 2,2-dimethylpropanoate]	95	90	90	100	100	20	50	30	60	30	80						
Cc1c(N2CCC(OC3CC3)C2=O)cc(N(C(=O)OCC(C)C)S(=O)(=O)C(F)(F)F)c(C)c1C (centres unmarked) [Compound 50]												90	100	50	90	70	80
Cc1c(N2CCC(OC3CCC3)C2=O)cc(N(COC(=O)C(C)(C)C)S(=O)(=O)C(F)(F)F)c(C)c1C (centres unmarked) [Compound 51]												20	60	20	50	60	80
Cc1cc(C)c(N(COC(=O)C(C)(C)C)S(=O)(=O)C(F)(F)F)cc1N1CCC(OCC2CC2)C1=O (centres unmarked) [Compound 53]												30	90	0	70	70	90
Cc1cc(C)c(N(COC(=O)C(C)(C)C)S(=O)(=O)C(F)(F)F)cc1N1CCC(OCC2CC2(F)F)C1=O (centres unmarked) [Compound 54]												0	50	60	70	50	80
Cc1cc(C)c(N(COC(=O)C(C)(C)C)S(=O)(=O)C(F)(F)F)cc1N1CCC(OCC2CCC2)C1=O (centres unmarked) [Compound 56]												10	90	0	60	20	60
Cc1cc(C)c(N2CCC(OCC3CCCC3)C2=O)cc1NS(=O)(=O)C(F)(F)F (centres unmarked) [Compound 57]												100	100	20	60	40	60
C#CC(C)OC1CCN(c2cc(NS(=O)(=O)C(F)(F)F)c(C)cc2C)C1=O (centres unmarked) [Compound 58]												100	100	60	70	70	90
C=C(C)COC1CCN(c2cc(NS(=O)(=O)C(F)(F)F)c(C)cc2C)C1=O (centres unmarked) [Compound 59]												100	100	10	70	10	70
Cc1c(NS(=O)(=O)C(F)(F)F)cc(N2CCC(OCC3CCC3)C2=O)c(C)c1F (centres unmarked) [Compound 64]												100	100	0	20	30	70
